Source: publication PMC7044277 (Nature Communications, 2020)
Values joined by “and” are separate entries in the source; they are usually repeats but may differ in a detail not shown here. Equal entries are not always repeated.

Experiments:
Assay type in all cases: cell-based
[1] = biological target: T1, 320 non-olfactory GPCRs (Homo sapiens, UniProt P32249)
T1 construct: expressed in transfected cells; host or cells: HTLA cells

[2] = biological target: T2, 320 non-olfactory GPCRs (Homo sapiens, UniProt P35348)
T2 construct: expressed in transfected cells; host or cells: HTLA cells
T2 sequence (P35348 whole entry): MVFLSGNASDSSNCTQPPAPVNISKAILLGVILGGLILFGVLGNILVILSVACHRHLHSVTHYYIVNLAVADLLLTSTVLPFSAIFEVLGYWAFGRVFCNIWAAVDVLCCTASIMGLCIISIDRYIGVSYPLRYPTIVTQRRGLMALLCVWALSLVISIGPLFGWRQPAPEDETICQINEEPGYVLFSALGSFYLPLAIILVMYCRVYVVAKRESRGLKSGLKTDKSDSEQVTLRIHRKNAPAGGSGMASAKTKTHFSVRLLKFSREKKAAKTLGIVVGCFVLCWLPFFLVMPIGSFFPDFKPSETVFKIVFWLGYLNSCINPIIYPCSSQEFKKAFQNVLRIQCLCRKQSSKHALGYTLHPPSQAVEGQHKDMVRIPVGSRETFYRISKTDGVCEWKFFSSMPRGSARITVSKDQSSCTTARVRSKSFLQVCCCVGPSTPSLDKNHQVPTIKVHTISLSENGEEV

[3] = biological target: 320 non-olfactory GPCRs (Homo sapiens, UniProt P35414)
Chain of 320 non-olfactory GPCRs (Homo sapiens, UniProt P35414) (P35414 whole entry): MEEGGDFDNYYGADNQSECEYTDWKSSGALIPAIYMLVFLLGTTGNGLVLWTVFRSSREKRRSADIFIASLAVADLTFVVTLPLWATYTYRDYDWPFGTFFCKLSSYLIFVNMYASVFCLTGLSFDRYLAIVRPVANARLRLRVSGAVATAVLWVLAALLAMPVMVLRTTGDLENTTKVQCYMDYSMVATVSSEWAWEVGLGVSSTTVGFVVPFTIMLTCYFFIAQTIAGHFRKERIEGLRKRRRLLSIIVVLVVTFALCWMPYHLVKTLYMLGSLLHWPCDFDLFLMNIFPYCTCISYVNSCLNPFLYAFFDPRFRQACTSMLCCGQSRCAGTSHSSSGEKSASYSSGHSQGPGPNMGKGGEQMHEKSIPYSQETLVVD

[4] = biological target: 320 non-olfactory GPCRs (Homo sapiens, UniProt Q13258); conditions: receptor PTGDR; replicate values, Fig_4g
Chain of 320 non-olfactory GPCRs (Homo sapiens, UniProt Q13258) (Q13258 whole entry): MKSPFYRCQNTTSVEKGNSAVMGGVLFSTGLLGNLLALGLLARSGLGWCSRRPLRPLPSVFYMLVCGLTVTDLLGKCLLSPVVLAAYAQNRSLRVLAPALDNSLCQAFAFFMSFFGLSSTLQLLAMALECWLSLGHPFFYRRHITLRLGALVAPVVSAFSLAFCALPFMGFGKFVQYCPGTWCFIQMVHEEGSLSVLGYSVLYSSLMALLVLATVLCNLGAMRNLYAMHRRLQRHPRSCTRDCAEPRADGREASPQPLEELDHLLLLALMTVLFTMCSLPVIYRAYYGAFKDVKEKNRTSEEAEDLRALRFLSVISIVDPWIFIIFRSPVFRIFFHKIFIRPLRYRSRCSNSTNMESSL
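Wherever Fold of Basal is given: compound tested at 1 µM final concentration.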
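Wherever GPCRome agonism screen response is given: fold over basal response of each receptor without drug.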

T1 sequence (P32249 whole entry): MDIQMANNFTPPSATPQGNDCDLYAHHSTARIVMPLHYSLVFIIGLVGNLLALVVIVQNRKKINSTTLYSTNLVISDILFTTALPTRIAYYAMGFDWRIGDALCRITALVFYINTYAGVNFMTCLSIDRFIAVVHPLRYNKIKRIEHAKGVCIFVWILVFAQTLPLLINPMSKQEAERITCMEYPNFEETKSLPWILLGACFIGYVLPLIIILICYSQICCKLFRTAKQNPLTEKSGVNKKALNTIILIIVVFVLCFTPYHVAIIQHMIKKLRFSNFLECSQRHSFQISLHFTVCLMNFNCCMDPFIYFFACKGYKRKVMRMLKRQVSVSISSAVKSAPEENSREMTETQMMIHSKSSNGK

## CCOc1cccc2cc(C(C)NCC3(O)CCCCC3)oc12 (stereo not shown) [O4LE6]
[1]
  Fold of Basal: 2.191 and 1.736 and 1.097 and 1.536
[2]
  Fold of Basal: 1.536 and 0.8942 and 1.241 and 1.268
[3]
  Fold of Basal: 1.057 and 1.1216 and 0.9447 and 1.032
[4]
  GPCRome agonism screen response: 1.067 and 0.797 and 0.4909 and 0.5007
